The numbers were not newly measured in US20080286377A1 (priority 2001, published 2008), which cites them from elsewhere.

For series [1], the system named is osteolysis associated with wear debris. The following applies: systemic administration.
Series [2] concerns alveolar bone resorption.
The conditions of series [3]: activity assays.
In series [4] the test system is bone resorption. The settings on record: mild to moderate Paget's disease; administration for 10 days (intravenous) to 6 months (oral); SAP activity and UHP excretion as indicators.

With `NCCCC(O)(P(=O)(O)O)P(=O)(O)O` [alendronate], the “osteolysis associated with wear debris” value in series [1] is “inhibited osteolysis”. The “prevention of resorption, 10-second contact” value in series [2] (10-second contact of soaked pellet to alveolar bone) is listed as “ineffective in preventing resorption”. The “bone resorption after local administration” value in series [2] (drug-soaked pellet against alveolar bone for 2 hours, monitored 21 days later) is recorded as “significantly reduced bone resorption”. In addition, in series [2] (systemic administration), the “prevention of resorption, systemic administration” value is “effective”.

`N.N.[Cl][Pt][Cl]` [cisplatin]: the “effect of PMMA polymerization process on drug potency” value (“effect of PMMA polymerization process” for short) in series [3] is “did not adversely impact or alter the therapeutic potential”.

`CN(Cc1cnc2nc(N)nc(N)c2n1)c1ccc(C(=O)N[C@@H](CCC(=O)O)C(=O)O)cc1` [methotrexate]: in series [3], the “effect of PMMA polymerization process” value is reported as “did not adversely impact or alter the therapeutic potential”.

On to `NCCC(O)(P(=O)(O)O)P(=O)(O)O` [pamidronate disodium], for which the “biochemical remission of bone resorption, mean duration” value in series [4] was 2.7 years.

Take Gentamicin: in series [3], the “effect of PMMA polymerization process” value is “did not adversely impact or alter the therapeutic potential”.
